Data taken from US12459951B2, “Compounds that interact with RAS superfamily proteins for treatment of cancers, inflammatory diseases, rasopathies, and fibrotic disease” (SHY Therapeutics, LLC, priority 2022, dated 2025).
Structures can show the parent of a compound that is named as a salt.

tested on: Smad2/Smad3 phosphorylation; assay: Phospho-Smad2/3 Inhibition Assay (western blot), Panc-1; type: cell-based, human; settings: at 10 μM, Panc-1 pancreatic cancer cell line; starred symbols = activation
Procedure: Protocol for Phospho-Smad2/3 Inhibition Assay
This assay is referred to as the “Phospho-Smad2/3 Inhibition Assay” throughout this application.
Cell lines: Human tumor-derived pancreatic cancer cell line Panc-1 (expressing KRas G12D mutant) and mouse muscle myoblast C2C12 were purchased from American Type Culture Collection and grown in complete DMEM-High Glucose, supplemented with penicillin (100 U/mL), streptomycin (100 μg/mL), and 10% heat-inactivated FBS at 37° C. in a humidified incubator with 5% CO2.
Method: Cells were plated at 350000 cells/well density in a 12-well plate, allowed 3 hours to adhere to the plate, then starved in the appropriate medium in the presence of 0.5% FBS overnight. The small molecules to be tested were added to the cells in the final concentration of 10 μM in the presence of 0.3% DMSO for 3 hours incubation at 37° C. For IC50 value determination, serial dilutions of compounds were added to cells under the same conditions. Next, Panc-1 cells were stimulated with 10 ng/ml TGF-b1 for 1 hour, and C2C12 cells were stimulated with 10 ng/ml TGF-b1 for 20 minutes (recombinant human TGF-b1, R&D Systems). After stimulation cells were lysed with lysis buffer containing 1% Triton X-100, EDTA, and Halt™ Protease & Phosphatase Inhibitor Cocktail (Thermo Scientific). Protein concentration was assessed by BCA protein assay (Thermo Scientific). Phosphorylation level of Smad2/Smad3 was determined by western blot.
Western blot protocol: Equal amounts of protein (15-50 μg) were separated by SDS-PAGE and transferred to nitrocellulose membranes (Invitrogen by Thermo Fisher Scientific). The membrane was stained with Ponceau S Stain (Boston BioProducts) to verify uniform protein loading. Membranes were blocked with 10% milk and phosphorylation levels of Smad2/Smad3 were assessed by incubating overnight at 4° C. with the following antibodies: Phospho-Smad2 (Ser465/467) and Phosph-Smad3 (Ser423/425), both from Cell Signaling Technology. Then the membranes were incubated with HRP-conjugated secondary antibody (Jackson Immunoresearch, West Grove, PA). Bands were incubated in Amersham ECL Prime Western Blotting Detection Reagent (GE Healthcare) and visualized using the ChemiDoc MP imaging system (Bio-Rad).

Compound | % inh of Smad2/3 phosphorylation in Panc-1
CO[C@H]1CC[C@@H](Nc2nc(-c3ccccn3)nn3cc(-c4ccn(C(C)C)n4)c(C)c23)C1 (racemic) [Compound 9, rac 6-(1-Isopropyl-1H-pyrazol-3-yl)-N-((1R,3S)-3-methoxycyclopentyl)-5-methyl-2-(pyridin-2-yl)pyrrolo[2,1-f][1,2,4]triazin-4-amine] | 0 (0 = 0% inhibition)
CO[C@@H]1CC[C@@H](Nc2nc(-c3nccn3C)nn3cc(-c4ccn(C)n4)c(C)c23)C1 (racemic) [Compound 132, rac N-((1R,3R)-3-Methoxycyclopentyl)-5-methyl-2-(1-methyl-1H-imidazol-2-yl)-6-(1-methyl-1H-pyrazol-3-yl)pyrrolo[2,1-f][1,2,4]triazin-4-amine] | A* (A* = 1-25% activation)
CO[C@H]1CC[C@@H](Nc2nc(-c3nccn3C)nn3cc(-c4ccn(C)n4)c(C)c23)C1 (racemic) [Compound 133, rac N-((1R,3S)-3-Methoxycyclopentyl)-5-methyl-2-(1-methyl-1H-imidazol-2-yl)-6-(1-methyl-1H-pyrazol-3-yl)pyrrolo[2,1-f][1,2,4]triazin-4-amine] | A (A = 1-25% inhibition)
CO[C@@H]1CC[C@@H](Nc2nc(-c3nccn3C)nn3cc(-c4cccnc4)c(C)c23)C1 (racemic) [Compound 154, rac N-((1R,3R)-3-methoxy-cyclopentyl)-5-methyl-2-(1-methyl-1H-imidazol-2-yl)-6-(pyridin-3-yl)pyrrolo[2,1-f][1,2,4]triazin-4-amine] | C (C = 46-75% inhibition)
CO[C@H]1CC[C@@H](Nc2nc(-c3nccn3C)nn3cc(-c4cccnc4)c(C)c23)C1 (racemic) [Compound 155, rac N-((1R,3S)-3-methoxy-cyclopentyl)-5-methyl-2-(1-methyl-1H-imidazol-2-yl)-6-(pyridin-3-yl)pyrrolo[2,1-f][1,2,4]triazin-4-amine] | A (A = 1-25% inhibition)
COc1cc(-c2cn3nc(-c4nccn4C)nc(N[C@@H]4CC[C@@H](OC)C4)c3c2C)ccn1 (racemic) [Compound 163, rac N-((1R,3R)-3-Methoxycyclopentyl)-6-(2-methoxypyridin-4-yl)-5-methyl-2-(1-methyl-1H-imidazol-2-yl)pyrrolo[2,1-f][1,2,4]triazin-4-amine] | B (B = 26-45% inhibition)
COc1cc(-c2cn3nc(-c4nccn4C)nc(N[C@@H]4CC[C@H](OC)C4)c3c2C)ccn1 (racemic) [Compound 164, rac N-((1R,3S)-3-Methoxycyclopentyl)-6-(2-methoxypyridin-4-yl)-5-methyl-2-(1-methyl-1H-imidazol-2-yl)pyrrolo[2,1-f][1,2,4]triazin-4-amine] | A* (A* = 1-25% activation)
Cc1c(-c2ccn(C(C)C)n2)cn2nc(-c3ccccn3)nc(O)c12 [Compound 8, 6-(1-Isopropyl-1H-pyrazol-3-yl)-5-methyl-2-(pyridin-2-yl)pyrrolo[2,1-f][1,2,4]triazin-4-ol] | 0 (0 = 0% inhibition)
Cc1c(-c2ccn(C(C)C)n2)cn2nc(-c3nccn3C)nc(Nc3nccn3C)c12 [Compound 93, 6-(1-Isopropyl-1H-pyrazol-3-yl)-5-methyl-N,2-bis(1-methyl-1H-imidazol-2-yl)pyrrolo[2,1-f][1,2,4]triazin-4-amine] | A (A = 1-25% inhibition)
COc1cc(Nc2nc(-c3nccn3C)nn3cc(-c4ccccn4)c(C)c23)ncn1 [Compound 94, N-(6-Methoxypyrimidin-4-yl)-5-methyl-2-(1-methyl-1H-imidazol-2-yl)-6-(pyridin-2-yl)pyrrolo[2,1-f][1,2,4]triazin-4-amine] | B* (B* = 26-45% activation)
COc1ccnc(Nc2nc(-c3nccn3C)nn3cc(-c4ccn(C(F)F)n4)c(C)c23)n1 [Compound 95, 6-(1-(Difluoromethyl)-1H-pyrazol-3-yl)-N-(4-methoxypyrimidin-2-yl)-5-methyl-2-(1-methyl-1H-imidazol-2-yl)pyrrolo[2,1-f][1,2,4]triazin-4-amine] | C* (C* = 46-75% activation)
Cc1c(-c2ccn(C(C)C)n2)cn2nc(-c3nccn3C)nc(Nc3nccc(OCCN(C)C)n3)c12 [Compound 96, N-(4-(2-(Dimethylamino)ethoxy)pyrimidin-2-yl)-6-(1-isopropyl-1H-pyrazol-3-yl)-5-methyl-2-(1-methyl-1H-imidazol-2-yl)pyrrolo[2,1-f][1,2,4]triazin-4-amine] | D (D = 76-100% inhibition)
Cc1c(-c2ccn(C(C)C)n2)cn2nc(-c3nccn3C)nc(Nc3cc(OCCO)ncn3)c12 [Compound 97, 2-((6-((6-(1-Isopropyl-1H-pyrazol-3-yl)-5-methyl-2-(1-methyl-1H-imidazol-2-yl)pyrrolo[2,1-f][1,2,4]triazin-4-yl)amino)pyrimidin-4-yl)oxy) ethan-1-ol] | D (D = 76-100% inhibition)
COc1cc(Nc2nc(-c3nccn3C)nn3cc(-c4ccn(C(F)F)n4)c(C)c23)ncn1 [Compound 98, 6-(1-(Difluoromethyl)-1H-pyrazol-3-yl)-N-(6-methoxypyrimidin-4-yl)-5-methyl-2-(1-methyl-1H-imidazol-2-yl)pyrrolo[2,1-f][1,2,4]triazin-4-amine] | D (D = 76-100% inhibition)
Cc1c(-c2ccn(C)n2)cn2nc(-c3nccn3C)nc(Cl)c12 [Compound 99, 4-Chloro-5-methyl-2-(1-methyl-1H-imidazol-2-yl)-6-(1-methyl-1H-pyrazol-3-yl)pyrrolo[2,1-f][1,2,4]triazine] | D (D = 76-100% inhibition)
Cc1c(-c2ccn(C)n2)cn2nc(-c3nccn3C)nc(Nc3cc(OCCO)ncn3)c12 [Compound 101, 2-((6-((5-Methyl-2-(1-methyl-1H-imidazol-2-yl)-6-(1-methyl-1H-pyrazol-3-yl)pyrrolo[2,1-f][1,2,4]triazin-4-yl)amino)pyrimidin-4-yl)oxy) ethan-1-ol] | D* (D* = 76-100% activation)
CO[C@H]1C[C@H](Nc2nc(-c3nccn3C)nn3cc(-c4ccn(C)n4)c(C)c23)C1 [Compound 103, N-((1r,3r)-3-Methoxycyclobutyl)-5-methyl-2-(1-methyl-1H-imidazol-2-yl)-6-(1-methyl-1H-pyrazol-3-yl)pyrrolo[2,1-f][1,2,4]triazin-4-amine hydrochloride salt] | C* (C* = 46-75% activation)
Cc1c(-c2ccn(C)n2)cn2nc(-c3nccn3C)nc(Nc3nccc(OCCN(C)C)n3)c12 [Compound 105, N-(4-(2-(Dimethylamino)ethoxy)pyrimidin-2-yl)-5-methyl-2-(1-methyl-1H-imidazol-2-yl)-6-(1-methyl-1H-pyrazol-3-yl)pyrrolo[2,1-f][1,2,4]triazin-4-amine] | A (A = 1-25% inhibition)
Cc1c(-c2ccn(C)n2)cn2nc(-c3nccn3C)nc(Nc3nccn3C)c12 [Compound 106, 5-Methyl-N,2-bis(1-methyl-1H-imidazol-2-yl)-6-(1-methyl-1H-pyrazol-3-yl)pyrrolo[2,1-f][1,2,4]triazin-4-amine] | D* (D* = 76-100% activation)
COc1cncnc1Nc1nc(-c2nccn2C)nn2cc(-c3ccn(C)n3)c(C)c12 [Compound 107, N-(5-Methoxypyrimidin-4-yl)-5-methyl-2-(1-methyl-1H-imidazol-2-yl)-6-(1-methyl-1H-pyrazol-3-yl)pyrrolo[2,1-f][1,2,4]triazin-4-amine] | A (A = 1-25% inhibition)
CCc1nc(Nc2nc(-c3nccn3C)nn3cc(-c4ccn(C)n4)c(C)c23)nn1C [Compound 108, N-(5-Ethyl-1-methyl-1H-1,2,4-triazol-3-yl)-5-methyl-2-(1-methyl-1H-imidazol-2-yl)-6-(1-methyl-1H-pyrazol-3-yl)pyrrolo[2,1-f][1,2,4]triazin-4-amine] | D* (D* = 76-100% activation)
Cc1c(-c2ccn(C)n2)cn2nc(-c3nccn3C)nc(Nc3cn(C(C)C)nn3)c12 [Compound 109, N-(1-Isopropyl-1H-1,2,3-triazol-4-yl)-5-methyl-2-(1-methyl-1H-imidazol-2-yl)-6-(1-methyl-1H-pyrazol-3-yl)pyrrolo[2,1-f][1,2,4]triazin-4-amine] | D* (D* = 76-100% activation)
COc1cnc(Nc2nc(-c3nccn3C)nn3cc(-c4ccn(C)n4)c(C)c23)cn1 [Compound 110, N-(5-Methoxypyrazin-2-yl)-5-methyl-2-(1-methyl-1H-imidazol-2-yl)-6-(1-methyl-1H-pyrazol-3-yl)pyrrolo[2,1-f][1,2,4]triazin-4-amine] | A* (A* = 1-25% activation)
